Assay results published in US5811391A, “Cyclic CS-1 peptidomimetics, compositions and methods of using same” (Cytel Corporation, priority 1995, dated 1998).
Positions of bridges follow the written chain, without caps; N, C: chain ends. Residues, ends and D or L forms follow the SMILES beside them.

Molecular target: VLA-4 (Homo sapiens, UniProt P05556+P13612)
Test: In vitro binding assay: 51Cr-labeled Jurkat cells to solid phase-bound CS-1 peptide (SEQ ID NO:5)
Format: cell-based
Design: inflammatory cells that contain the VLA-4 receptor [Jurkat cells; host or cells: Jurkat cells (human T lymphoblastic line)
Conditions: Jurkat cells, CS-1
Method: Binding inhibition is measured here as a concentration of peptide that inhibits one-half the binding between a standard number of Jurkat cells and a standard amount of CS-1 peptide bound to the surface of a microtiter plate well. Those concentrations are conveniently expressed as IC50 values, smaller numbers indicating a lower concentration required to inhibit 50 percent binding and therefore greater potency. Further specifics of this assay are provided hereinafter.
Jurkat cells (ATCC TIB 152), a human T lymphoblastic line, labeled with ^51 chromium were used to assay in vitro binding inhibition provided by various peptides discussed herein.
The plates were prepared as follows: The 25-mer CS-1 peptide (SEQ ID NO:5) dissolved at 0.5-1 μg/ml in a buffer of 0.1M NaHCO3 at pH 9.5 that also contained 10 μg/ml of bovine serum albumin (BSA) or a conjugate of the CS-1 peptide linked to ovalbumin (CS-1-OVA) dissolved at 1-2.5 μg/ml in the same buffer was used as the substrate. Each well of the microtiter plates was coated with 50 μl of substrate or buffer alone for controls. The wells were permitted to dry out completely and were then rinsed twice with PBS at pH 7.4. Non-specific binding sites of each well were then blocked using 200 μl per well of RPMI/1 percent BSA for two hours at room temperature. Both solid phase-affixed substrates provided similar results.
Jurkat cells (3-5×10^6 cells) were placed into a 15 ml FALCON™ round-bottom tube with a cap. The tube was centrifuged, and the extra medium was then removed.
Two hundred microliters of a ^51 Cr labeling solution were added to the centrifuged cells and maintained in contact with the cells for 90-120 minutes in a warm room. This procedure typically provides about 50,000-100,000 cpm/well with about 80-100 percent cell viability. Longer contact times provide a greater amount of labeling but lower cell viability.
The labeled cells were washed with (i) complete medium, (ii) 1mM EDTA/PBS and then (iii) RPM1/1 percent BSA free of serum components. The cells were centrifuged after each washing. The cells were finally resuspended in serum-free RPMI/1 percent BSA at a concentration of 1×10^6 viable cells/ml, which provides a concentration that is diluted by one-half in the assay.
Cyclic inhibitor peptides were prepared as stock solutions at 20 mg/ml in DMSO in 1.5 ml cryogenic screwcap vials, and were stored at -70° C. Using FLOW™ round-bottom or V-bottom microtiter plates, the inhibitor peptides were prepared at twice the assay concentration in RPMI/1 percent BSA at 60 μl/well.
Four initial dilutions were typically used.
The ^51 Cr-labeled cells (1×10^6 cells at 60 μl/well) were then admixed with the diluted cyclic peptide solutions. The admixtures were maintained at room temperature (about 22° C.) for 30 minutes.
One hundred microliters of each inhibitor peptide/cell admixture were transferred to the substrate-coated wells. This was done in triplicate for each dilution. The resulting plates were incubated for 30 minutes at 37° C. and then washed gently three times with RPMI/1 percent BSA at 200 μl/well. Binding was observed microscopically, particularly after the second wash.
The bound cells were then lysed by the addition of a 0.5 percent solution of sodium dodecylsulfate in water at 100 μl/well. The resulting solutions were then processed for counting and calculation of IC50 values following usual procedures. Appropriate positive and negative controls were used with each plate so that the results of separate assays could be normalized and compared.
The potency data of Table 1 and Table 2 are so normalized. The absolute IC50 value for the peptide of SEQ ID NO:7 is 0.3 μM.

[1] = Table 1, normalized IC50 potency relative to standard peptide SEQ ID NO:6 (=1)
[2] = Table 2, normalized IC50 potency relative to standard peptide SEQ ID NO:6

VLA-4, sequence (P13612 34-1032): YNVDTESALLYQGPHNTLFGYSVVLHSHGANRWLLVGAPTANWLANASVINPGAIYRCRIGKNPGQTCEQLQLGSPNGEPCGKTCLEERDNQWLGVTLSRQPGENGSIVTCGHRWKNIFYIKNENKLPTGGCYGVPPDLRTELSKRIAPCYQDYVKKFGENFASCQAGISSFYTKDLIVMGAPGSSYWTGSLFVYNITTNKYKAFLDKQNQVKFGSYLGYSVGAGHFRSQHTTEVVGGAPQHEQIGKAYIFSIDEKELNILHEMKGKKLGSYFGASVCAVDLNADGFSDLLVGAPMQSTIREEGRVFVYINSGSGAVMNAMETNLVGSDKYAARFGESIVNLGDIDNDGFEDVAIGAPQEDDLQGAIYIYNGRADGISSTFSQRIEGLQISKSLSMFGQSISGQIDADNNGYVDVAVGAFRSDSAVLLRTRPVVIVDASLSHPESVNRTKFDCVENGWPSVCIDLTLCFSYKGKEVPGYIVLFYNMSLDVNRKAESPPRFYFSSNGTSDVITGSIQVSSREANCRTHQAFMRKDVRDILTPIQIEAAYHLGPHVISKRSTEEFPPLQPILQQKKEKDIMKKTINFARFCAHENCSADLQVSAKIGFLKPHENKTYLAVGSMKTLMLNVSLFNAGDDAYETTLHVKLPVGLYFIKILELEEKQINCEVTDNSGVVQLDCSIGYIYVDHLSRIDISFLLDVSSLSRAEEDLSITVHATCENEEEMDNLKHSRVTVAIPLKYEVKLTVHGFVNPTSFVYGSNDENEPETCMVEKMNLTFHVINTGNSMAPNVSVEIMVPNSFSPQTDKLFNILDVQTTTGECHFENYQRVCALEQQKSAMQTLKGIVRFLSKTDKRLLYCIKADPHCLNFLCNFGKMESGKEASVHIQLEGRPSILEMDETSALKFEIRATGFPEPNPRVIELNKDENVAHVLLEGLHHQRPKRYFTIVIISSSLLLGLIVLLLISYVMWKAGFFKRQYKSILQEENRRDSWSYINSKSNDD
VLA-4, sequence (P05556 21-798): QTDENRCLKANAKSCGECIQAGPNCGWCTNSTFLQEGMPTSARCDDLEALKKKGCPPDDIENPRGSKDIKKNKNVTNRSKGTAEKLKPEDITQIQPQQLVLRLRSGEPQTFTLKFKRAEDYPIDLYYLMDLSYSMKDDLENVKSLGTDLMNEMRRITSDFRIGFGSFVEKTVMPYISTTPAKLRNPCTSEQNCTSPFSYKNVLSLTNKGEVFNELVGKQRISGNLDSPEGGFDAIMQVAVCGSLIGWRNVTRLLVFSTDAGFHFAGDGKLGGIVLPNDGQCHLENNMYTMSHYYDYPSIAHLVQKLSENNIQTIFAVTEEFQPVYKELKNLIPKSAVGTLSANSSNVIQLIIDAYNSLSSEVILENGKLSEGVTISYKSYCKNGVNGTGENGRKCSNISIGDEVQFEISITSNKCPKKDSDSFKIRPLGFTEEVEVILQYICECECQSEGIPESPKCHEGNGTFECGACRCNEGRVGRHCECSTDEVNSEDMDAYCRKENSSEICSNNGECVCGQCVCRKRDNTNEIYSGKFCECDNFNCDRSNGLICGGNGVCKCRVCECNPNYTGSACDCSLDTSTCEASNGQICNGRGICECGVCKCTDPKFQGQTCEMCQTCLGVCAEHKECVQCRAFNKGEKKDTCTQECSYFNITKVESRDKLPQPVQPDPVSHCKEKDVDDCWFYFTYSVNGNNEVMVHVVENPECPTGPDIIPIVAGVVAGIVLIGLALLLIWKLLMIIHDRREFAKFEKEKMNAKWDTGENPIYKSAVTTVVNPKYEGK

| SMILES | Relative Potency [1] | Relative Potency [2] |
| --- | --- | --- |
| CC(=O)N[C@@H](Cc1ccccc1)C(=O)N[C@H]1CSSC[C@@H](C(N)=O)NC(=O)[C@H](Cc2ccccc2)NC(=O)[C@H](CC(=O)O)NC1=O [SEQ ID NO:17, AcFCDFC-NH2] (Ac-FCDFC-NH2; disulfide 2-5) | 52 |  |
| CC(=O)N[C@@H](Cc1ccccc1)C(=O)N[C@@H](CS)C(=O)N[C@@H](CC(=O)O)C(=O)N[C@@H](Cc1ccccc1)C(=O)N[C@@H](CS)C(N)=O [SEQ ID NO:18, AcFCDFC-NH2] (Ac-FCDFC-NH2) | 41 |  |
| CC(C)C[C@@H]1NC(=O)[C@H](Cc2ccccc2)NC(=O)[C@H](CCC(=O)O)NC(=O)[C@@H]2CCCN2C(=O)[C@@H](N)CSSC[C@@H](C(N)=O)NC(=O)[C@H](CO)NC(=O)[C@@H]2CCCN2C(=O)[C@H](Cc2ccccc2)NC(=O)[C@H](CC(=O)O)NC1=O [SEQ ID NO:19, CPEFLDFPSC-NH2] (H-CPEFLDFPSC-NH2; disulfide 1-10) | 6 |  |
| CC(C)C[C@@H]1NC(=O)[C@H](Cc2ccccc2)NC(=O)[C@H](CCC(=O)O)NC(=O)[C@@H](N)CSSC[C@@H](C(N)=O)NC(=O)[C@@H]2CCCN2C(=O)[C@H](Cc2ccccc2)NC(=O)[C@H](CC(=O)O)NC1=O [SEQ ID NO:20, CEFLDFPC-NH2] (H-CEFLDFPC-NH2; disulfide 1-8) | 19 |  |
| CC(C)C[C@@H]1NC(=O)[C@H](Cc2ccccc2)NC(=O)[C@@H](N)CSSC[C@@H](C(N)=O)NC(=O)[C@H](C(C)C)NC(=O)[C@H]([C@@H](C)O)NC(=O)[C@H](CO)NC(=O)[C@@H]2CCCN2C(=O)[C@H](Cc2ccccc2)NC(=O)[C@H](CC(=O)O)NC1=O [SEQ ID NO:21, CFLDFPSTVC-NH2] (H-CFLDFPSTVC-NH2; disulfide 1-10) | 19 |  |
| CC(C)C[C@@H]1NC(=O)[C@H](Cc2ccccc2)NC(=O)[C@H](CCC(=O)O)NC(=O)[C@@H](N)CSSC[C@@H](C(N)=O)NC(=O)[C@H]([C@@H](C)O)NC(=O)[C@H](CO)NC(=O)[C@@H]2CCCN2C(=O)[C@H](Cc2ccccc2)NC(=O)[C@H](CC(=O)O)NC1=O [SEQ ID NO:22, CEFLDFPSTC-NH2] (H-CEFLDFPSTC-NH2; disulfide 1-10) | 9 |  |
| CC(C)C[C@@H]1NC(=O)[C@H](Cc2ccccc2)NC(=O)[C@H](CCC(=O)O)NC(=O)[C@@H]2CCCN2C(=O)CNC(=O)[C@@H](N)CSSC[C@@H](C(N)=O)NC(=O)[C@H](Cc2ccccc2)NC(=O)[C@H](CC(=O)O)NC1=O [SEQ ID NO:23, CGPEFLDFC-NH2] (H-CGPEFLDFC-NH2; disulfide 1-9) | 9 |  |
| CC(C)C[C@@H]1NC(=O)[C@H](Cc2ccccc2)NC(=O)[C@H](CCC(=O)O)NC(=O)[C@@H](N)CSSC[C@@H](C(N)=O)NC(=O)[C@H](CO)NC(=O)[C@@H]2CCCN2C(=O)[C@H](Cc2ccccc2)NC(=O)[C@H](CC(=O)O)NC1=O [SEQ ID NO:24, CEFLDFPSC-NH2] (H-CEFLDFPSC-NH2; disulfide 1-9) | 6 |  |
| NC(=O)[C@@H]1CSSC[C@H](NC(=O)[C@@H](N)Cc2ccccc2)C(=O)N[C@@H](CC(=O)O)C(=O)N[C@@H](Cc2ccccc2)C(=O)N1 [SEQ ID NO:25, FCDFC-NH2] (H-FCDFC-NH2; disulfide 2-5) | 3 |  |
| CC(C)C[C@@H]1NC(=O)[C@@H](N)CSSC[C@@H](C(N)=O)NC(=O)[C@H](Cc2ccccc2)NC(=O)[C@H](CC(=O)O)NC1=O [SEQ ID NO:28, CLDFC -NH2] (H-CLDFC-NH2; disulfide 1-5) | 1 |  |
| CC(=O)N[C@@H](Cc1ccccc1)C(=O)N[C@H]1CSSC[C@@H](C(=O)N2CCC[C@H]2C(N)=O)NC(=O)[C@H](CC(=O)O)NC1=O [SEQ ID NO:29, AcFCDCP-NH2] (Ac-FCDCP-NH2; disulfide 2-4) | 1 |  |
| NC(=O)[C@@H]1CCCN1C(=O)[C@@H]1CSSC[C@H](NC(=O)[C@@H](N)Cc2ccccc2)C(=O)N[C@@H](CC(=O)O)C(=O)N1 [SEQ ID NO:30, FCDCP-NH2] (H-FCDCP-NH2; disulfide 2-4) | < 1 |  |
| CC(C)C[C@@H]1NC(=O)[C@H](CCC(=O)O)NC(=O)[C@@H]2CCCN2C(=O)[C@@H](N)CSSC[C@@H](C(N)=O)NC(=O)[C@H](CO)NC(=O)[C@@H]2CCCN2C(=O)[C@H](Cc2ccccc2)NC(=O)[C@H](CC(=O)O)NC1=O [SEQ ID NO:33, CPELDFPSC-NH2] (H-CPELDFPSC-NH2; disulfide 1-9) | 31 |  |
| CC(C)C[C@@H]1NC(=O)[C@H](Cc2ccccc2)NC(=O)[C@@H](N)CSSC[C@@H](C(N)=O)NC(=O)[C@@H]2CCCN2C(=O)[C@H](Cc2ccccc2)NC(=O)[C@H](CC(=O)O)NC1=O [drawing 7] (H-CFLDFPC-NH2; disulfide 1-7) |  | 254 |
| CC(=O)N[C@H]1CSSC[C@@H](C(N)=O)NC(=O)[C@@H]2CCCN2C(=O)[C@H](Cc2ccccc2)NC(=O)[C@H](CC(=O)O)NC(=O)[C@H](CC(C)C)NC(=O)[C@H](Cc2ccccc2)NC1=O [drawing 10] (Ac-CFLDFPC-NH2; disulfide 1-7) |  | 135 |
| NC(=O)[C@@H]1CSSC[C@H](NC(=O)[C@@H](N)Cc2ccccc2)C(=O)N[C@@H](CC(=O)O)C(=O)N[C@@H](Cc2ccccc2)C(=O)N2CCC[C@H]2C(=O)N1 [drawing 11] (H-FCDFPC-NH2; disulfide 2-6) |  | 131 |
| CC(C)C[C@@H]1NC(=O)[C@H](Cc2ccccc2)NC(=O)[C@@H](N)CSSC[C@@H](C(N)=O)NC(=O)[C@H](CO)NC(=O)[C@@H]2CCCN2C(=O)[C@H](Cc2ccccc2)NC(=O)[C@H](CC(=O)O)NC1=O [drawing 12] (H-CFLDFPSC-NH2; disulfide 1-8) |  | 122 |
| CC(=O)N[C@@H](Cc1ccccc1)C(=O)N[C@H]1CSSC[C@@H](C(N)=O)NC(=O)[C@H](Cc2ccccc2)NC(=O)[C@H](CC(=O)O)NC1=O [drawing 21] (Ac-FCDFC-NH2; disulfide 2-5) |  | 52.6 |
| CC(C)C[C@@H]1NC(=O)[C@H](Cc2ccccc2)NC(=O)[C@H](CCC(=O)O)NC(=O)[C@@H]2CCCN2C(=O)[C@@H](N)CSSC[C@@H](C(N)=O)NC(=O)[C@@H]2CCCN2C(=O)[C@H](Cc2ccccc2)NC(=O)[C@H](CC(=O)O)NC1=O [drawing 23] (H-CPEFLDFPC-NH2; disulfide 1-9) |  | 31.3 |
| CC(C)C[C@@H]1NC(=O)[C@H](Cc2ccccc2)NC(=O)[C@H](CCC(=O)O)NC(=O)[C@@H](N)CSSC[C@@H](C(N)=O)NC(=O)[C@@H]2CCCN2C(=O)[C@H](Cc2ccccc2)NC(=O)[C@H](CC(=O)O)NC1=O [drawing 26] (H-CEFLDFPC-NH2; disulfide 1-8) |  | 18.8 |
| CC(C)C[C@@H]1NC(=O)[C@H](Cc2ccccc2)NC(=O)[C@H](CCC(=O)O)NC(=O)[C@@H]2CCCN2C(=O)CNC(=O)[C@@H](N)CSSC[C@@H](C(N)=O)NC(=O)[C@H](Cc2ccccc2)NC(=O)[C@H](CC(=O)O)NC1=O [drawing 30] (H-CGPEFLDFC-NH2; disulfide 1-9) |  | 9.39 |
| CC(C)C[C@@H]1NC(=O)[C@H](Cc2ccccc2)NC(=O)[C@H](CCC(=O)O)NC(=O)[C@@H](N)CSSC[C@@H](C(N)=O)NC(=O)[C@H](CO)NC(=O)[C@@H]2CCCN2C(=O)[C@H](Cc2ccccc2)NC(=O)[C@H](CC(=O)O)NC1=O [drawing 34] (H-CEFLDFPSC-NH2; disulfide 1-9) |  | 6.26 |
| CC(C)C[C@@H]1NC(=O)[C@H](Cc2ccccc2)NC(=O)[C@H](CCC(=O)O)NC(=O)[C@@H]2CCCN2C(=O)[C@@H](N)CSSC[C@@H](C(N)=O)NC(=O)[C@H](CO)NC(=O)[C@@H]2CCCN2C(=O)[C@H](Cc2ccccc2)NC(=O)[C@H](CC(=O)O)NC1=O [drawing 35] (H-CPEFLDFPSC-NH2; disulfide 1-10) |  | 6.26 |
| NC(=O)[C@@H]1CSSC[C@H](NC(=O)[C@@H](N)Cc2ccccc2)C(=O)N[C@@H](CC(=O)O)C(=O)N[C@@H](Cc2ccccc2)C(=O)N1 [drawing 39] (H-FCDFC-NH2; disulfide 2-5) |  | 2.52 |
